Assay [1] concerns phosphorylation of AKT on Ser473 as a readout of the PI3K pathway in SKBR3 (PIK3CA WT) cells. As to the kind of experiment: PI3K pathway activation assay, pAKT Ser473 HTRF, SKBR3 cells. The class given is cell-based. The settings on record: two hours of treatment. As for the experimental part: The inhibitory activity of compounds was evaluated by measuring phosphorylation of AKT on Ser473 as a readout of the PI3K pathway using HTRF (CisBio catalog number: 64AKSPE). These studies were conducted in the T-47D (heterozygous PIK3CA H1047R) and SKBR3 (PIK3CA WT) cell lines. Cells were maintained in a 37° C. incubator at 5% CO2 in the following media: T-47D: RPMI 1640, ATCC© Modification (Gibco, A10491-01) supplemented with 10% v/v FBS (Gibco, 26140-079), 1% penicillin streptomycin (Gibco, 15140-122), and 7.4 ug/mL insulin (MilliporeSigma, I9278); SKBR3: McCoy's 5a (Modified) Medium (Gibco, 16600-082) supplemented with 10% v/v FBS (Gibco, 26140-079). Cells were seeded in 384-well plates at a density of 4,000 cells/well. Compounds dissolved in DMSO were added using a digital dispense (D300E, Tecan) 10-point serial dilution. After two hours of treatment, cells were lysed for thirty minutes and then incubated with detection reagents per HTRF kit material and manufacturer's instructions. Fluorescence signal was measured with a multimode plate reader (Envision 2105, Perkin Elmer). Fluorescent signal was normalized to background and DMSO controls to obtain percent inhibition/activity for each compound.

Assay [2] deals with phosphorylation of AKT on Ser473 as a readout of the PI3K pathway in T-47D (heterozygous PIK3CA H1047R) cells. Briefly: PI3K pathway activation assay, pAKT Ser473 HTRF, T-47D cells. The class given is cell-based. As to conditions: two hours of treatment. A digest of the protocol:
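pAKT Ser473 measured by HTRF in SKBR3 (PIK3CA WT) and T-47D (PIK3CA H1047R) cells, 4,000/well. Signal normalised to background and DMSO controls as percent inhibition.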

Consider nine molecules from US20240124422A1, “MUTANT PI3K-ALPHA INHIBITORS AND THEIR USE AS PHARMACEUTICALS” (Prelude Therapeutics Incorporated, priority 2022, published 2024).

Like-named read-outs stand apart in the source and are kept apart here.

Take `COC(=O)NC1[C@H]2CN(c3nc4c(C(C)Nc5ccccc5C(=O)O)cc(C)cc4c(=O)n3C)C[C@@H]12` (stereo partly drawn) [Example 58, 2-((1-(2-((1R,5S,6s)-6-((methoxycarbonyl)amino)-3-azabicyclo[3.1.0]hexan-3-yl)-3,6-dimethyl-4-oxo-3,4-dihydroquinazolin-8-yl)ethyl)amino)benzoic acid]: the IC50 was above 10 µM in assay [1] (Homo sapiens, SK-BR-3, 2 h) and below 0.5 µM in assay [2] (Homo sapiens, T47D, 2 h).

On to `Cc1ccc(C(=O)O)c(NC(C)c2cc(C)cc3c(=O)n(C)c(N4Cc5ccccc5C4)nc23)c1` (stereo not drawn) [Example 69, 2-((1-(2-(Isoindolin-2-yl)-3,6-dimethyl-4-oxo-3,4-dihydroquinazolin-8-yl)ethyl)amino)-4-methylbenzoic], for which the IC50 is above 10 µM in assay [1] (Homo sapiens, SK-BR-3, 2 h) and 0.5 to 10 µM in assay [2] (Homo sapiens, T47D, 2 h).

For `CC(Nc1ccccc1C(=O)O)c1cc(Br)cc2c(=O)n(C)c(N3Cc4ccccc4C3)nc12` (stereo not drawn) [Example 70, 2-((1-(6-Bromo-2-(isoindolin-2-yl)-3-methyl-4-oxo-3,4-dihydroquinazolin-8-yl)ethyl)amino)benzoic acid], the IC50 in assay [1] (Homo sapiens, SK-BR-3, 2 h) is above 10 µM; in assay [2] (Homo sapiens, T47D, 2 h), below 0.5 µM.

Regarding `Cc1cc(C(C)Nc2ccccc2C(=O)O)c2nc(N3C[C@@H]4C(C(=O)N(C)C5CCC5)[C@@H]4C3)n(C)c(=O)c2c1` (stereo partly drawn) [Example 82, 2-((1-(2-((1R,5S,6R)-6-(Cyclobutyl(methyl)carbamoyl)-3-azabicyclo[3.1.0]hexan-3-yl)-3,6-dimethyl-4-oxo-3,4-dihydroquinazolin-8-yl)ethyl)amino)benzoic acid], the IC50 in assay [1] is above 10 µM; in assay [2] (read-out: T47D pAKT IC50), below 0.5 µM.

In the case of `Cc1cc(C(C)Nc2ccccc2C(=O)O)c2nc(N3C[C@@H]4[C@H](C3)[C@H]4C(=O)N(C)C)n(C)c(=O)c2c1` (stereo partly drawn) [Example 90, 2-((1-(2-((1R,5S,6R)-6-(Dimethylcarbamoyl)-3-azabicyclo[3.1.0]hexan-3-yl)-3,6-dimethyl-4-oxo-3,4-dihydroquinazolin-8-yl)ethyl)amino)benzoic acid], the IC50 in assay [1] was above 10 µM; in assay [2] (read-out: T47D pAKT IC50) it was 0.5 to 10 µM.

As to `Cc1cc(C(C)Nc2ccccc2C(=O)O)c2nc(N3Cc4ccccc4C3)n(C3CC(CO)(CO)C3)c(=O)c2c1` (stereo not drawn) [Example 98, 2-((1-(3-(3,3-Bis(hydroxymethyl)cyclobutyl)-2-(isoindolin-2-yl)-6-methyl-4-oxo-3,4-dihydroquinazolin-8-yl)ethyl)amino)benzoic acid], the IC50 in assay [1] (Homo sapiens, SK-BR-3, 2 h) is above 10 µM; in assay [2] (Homo sapiens, T47D, 2 h) it was below 0.5 µM.

As for `COc1ccc(NC(C)c2cc(C)cc3c(=O)n(C)c(N4CC5CC5C4)nc23)c(C(=O)O)n1` (stereo not drawn) [Example 119, 3-[1-[2-(3-Azabicyclo[3.1.0]hexan-3-yl)-3,6-dimethyl-4-oxoquinazolin-8-yl]ethylamino]-6-methoxypyridine-2-carboxylic acid], the IC50 in assay [1] (Homo sapiens, SK-BR-3, 2 h) was above 10 µM; in assay [2] (Homo sapiens, T47D, 2 h), 0.5 to 10 µM.

Take `Cc1cc(C(C)Nc2ccc(C)nc2C(=O)O)c2nc(N3CC4CC4C3)n(C)c(=O)c2c1` (stereo not drawn) [Example 120, 3-[1-[2-(3-Azabicyclo[3.1.0]hexan-3-yl)-3,6-dimethyl-4-oxoquinazolin-8-yl]ethylamino]-6-methylpyridine-2-carboxylic acid]: the IC50 in assay [1] (Homo sapiens, SK-BR-3, 2 h) was above 10 µM; in assay [2] (Homo sapiens, T47D, 2 h), 0.5 to 10 µM.

Take `Cc1cc(C(C)Nc2ccc(F)cc2C(=O)O)c2nc(N3CC4CC4C3)n(C)c(=O)c2c1` (stereo not drawn) [Example 123, 2-[1-[2-(3-Azabicyclo[3.1.0]hexan-3-yl)-3,6-dimethyl-4-oxoquinazolin-8-yl]ethylamino]-5-fluorobenzoic acid]: the IC50 in assay [1] (Homo sapiens, SK-BR-3, 2 h) is above 10 µM; in assay [2] (Homo sapiens, T47D, 2 h), below 0.5 µM.
